Here are results for 10 molecules from publication PMC7696741, “Synthesis, Characterization and Assessment of the Antioxidant Activity of Cu(II), Zn(II) and Cd(II) Complexes Derived from Scorpionate Ligands” (Molecules, 2020).

The IC50 is the concentration at which inhibition is half-maximal.

Data set [1] in a line: ABTS radical scavenging activity. In kind it is biochemical. The note with it: ABTS+· in methanol, 10 min dark, room temperature, absorbance 630 nm. As for the experimental part:
(§1) We have carried out both enzymatic and non-enzymatic assays to evaluate the antioxidant properties of all the synthesized scorpionate complexes of Cu(II), Zn(II) and Cd(II) (1–9). All complexes were used at an initial concentration of 2.5 mM diluted in methanol.
Total antioxidant activity was assessed as a measure of radical scavenging activity of the complexes examined against the cationic radical ABTS^+. The method is valid for both hydrophilic and hydrophobic antioxidants. The working solution is produced by the oxidation of an initial solution of ABTS, which is oxidized to ABTS^+· through the reaction with K2S2O8 (2.45 mM) and left in the dark for 12 h. After incubation, the ABTS^+· solution is diluted with methanol to obtain an absorbance of 0.706 ± 0.001 units at 734 nm, which is used as a solution for the analysis of scavenger activity.
Radical scavenging ability is measured with a modified method described initially by Re et al. for the application of a microplate 96 wells. Compounds or standards in methanol were diluted in series in the 96 well plate, as previously described. Trolox was used as a control and was loaded into the plate with the same method and dilution of the samples. The reaction is started with the addition of 200 μL of the ABTS^+· solution (final volume in the wells, 250 μL). The reaction mixture is allowed to stand in the dark for 10 min at room temperature, and the absorbance at 630 nm is measured (Multiskan JX, Thermo Labsystems Oy, Vantaa, Finland). The radical scavenging activity is estimated through the absorbance decrease at 630 nm and can be expressed as the equivalent Trolox.

Data set [2] is described as follows: Nitric oxide scavenging activity (sodium nitroprusside / Griess reagent). Type of data set: biochemical. As to conditions: sodium nitroprusside in PBS, light, 150 min, 577 nm, read-out: Oxygen Species Radicals IC50, NO. As for the experimental part: as §1
In order to determine the scavenging activity of the metal complexes against NO radicals, samples were added to a 96-well plate dish with a flat bottom, and were serially diluted by the same procedure used in the previous assays. In all wells, 100 μL of PBS and 50 μL of sodium nitroprusside dissolved in saline phosphate buffer (PBS), were added. The plate with the samples was incubated in the presence of light at room temperature for 150 min. Finally, an equal volume of 50 μL of Griess reagent was added to each well in order to measure the nitrite content. The plate was incubated at room temperature for 10 min until chromophore formation, and the absorbance was measured at 577 nm in a microplate reader (Molecular Devices, Sunnyvale, CA, USA).
Background: The Griess reaction detects nitrite, a stable product of nitric oxide.

The nature of data set [3]: Hydrogen peroxide radicals scavenging activity. Type of data set: biochemical. The note with it: hydrogen peroxide in PBS, 10 min, 230 nm; read-out: Oxygen Species Radicals IC50, OOH. As for the experimental part:
as §1
In order to determine the scavenging activity of H2O2 of different complexes or standards in methanol, the compounds were diluted in series in a 96-well flat-bottom plate with the same procedure used in previous assays. Then, 200 μL of peroxide solution was added to the various wells hydrogen in PBS (final volume, 250 μL). After 10 min of incubation, the absorbance was measured at 230 nm with a microplate reader.

Data set [4] can be described thus: Superoxide radicals scavenging activity (PMS-NADH/NBT system). Type of data set: biochemical. As to conditions: for IC50: PMS-NADH/NBT, Tris-HCl pH 8.0, absorbance 560 nm, read-out: Oxygen Species Radicals IC50, O2^−. As for the experimental part: as §1
The scavenging activity of superoxide radicals was determined by the method of Liu and Ng, slightly modified by Kang and Lee. Superoxide radicals are generated in the phenazine methosulfate-nicotinamide adenine dinucleotide (PMS-NAD) system, responsible for the oxidation of NADH (reduced form of NAD) that was analyzed by reducing the nitro blue tetrazolium chloride NBT in a microplate assay.
In a 96 well plate, samples or control were subjected to a serial dilution with 20 mM Tris-HCl (pH 8.0). Superoxide radicals are generated by adding in 200 μL of 20 mM Tris-HCl (pH 8.0), containing 78 mM NADH, NBT 50 mM to each well and 10 μL are added to the various samples of PMS 10 mM. The reaction between superoxide radicals and NBT develops a blue color, whose intensity decreases proportionally in the presence of the antioxidant compound. The change in absorbance in the various wells is measured at 560 nm with a microplate reader (Molecular Devices, Sunnyvale, CA, USA). L-ascorbate was used as a positive control. The interaction relationship with the superoxide radical (%) was calculated using the following formula:superoxide radical (%) = ((A − A1)/A) × 100 where A is the absorbance of the positive control, and A1 is the absorbance of the test samples.

The nature of data set [5]: Hydroxyl radicals scavenging activity (L-ascorbic acid-CuSO4 / cytochrome c). Type of data set: biochemical. As to conditions: L-ascorbic acid-CuSO4, cytochrome c oxidation, pH 7.4, 550 nm; read-out: Oxygen Species Radicals IC50, OH. As for the experimental part:
as §1
The scavenging activity of superoxide radicals was determined by the method of Liu and Ng, slightly modified by Kang and Lee. Hydroxyl radicals, generated in the L-ascorbic acid-CuSO4 system, with the reduction of Cu^2+, were analyzed by the oxidation of cytochrome c in 96 microplate wells. The hydroxyl radicals were generated in 200 μL of 10 mM buffer sodium phosphate (pH 7.4), containing […], 12 μM reduced cytochrome c and the samples to be analyzed in different concentrations. The reduction of cytochrome c is produced with the addition of an excess of dithiothreitol to a solution of cytochrome c and followed by Sephadex G-15 chromatography (bed volume, 10 mL) to remove the excess of dithiothreitol.
The compounds or standards in methanol were diluted in series in a 96-well flat-bottomed plate. Stock solution was prepared in phosphate buffer (pH 7.4) containing 100 μM L-ascorbic acid and 100 μM CuSO4. Then, 200 μL of this solution was added to each well and, finally, 10 μL of 120 μM reduced cytochrome c, was added to the plate and was left to incubate for 20 min at room temperature. The change in absorbance, caused by the oxidation of cytochrome c, was measured at 550 nm with a microplate reader (Molecular Devices, Sunnyvale, CA, USA). A thiourea solution (500 μM) was used as a positive control. The scavenging activity of hydroxyl radicals of 500 […] solution of thiourea was taken as 100%. The scavenging activity of hydroxyl radicals has been calculated using the following formula:hydroxyl scavenging radicals (%) = (A − A0)/(AT − A0) × 100 where A is the absorbance of the samples, and AT and A0 is the absorbance of the thiourea and the control, respectively.

The nature of data set [6]: DPPH radical scavenging activity. Type of data set: biochemical. The note with it: DPPH 100 μM in methanol, 37 °C, absorbance 490 nm. As for the experimental part: as §1
The antioxidant properties of the compounds or control substances have been measured by DPPH, which is able to react with various natural or synthetic antioxidants. A dose response curve was plotted to determine the IC50 values, and the following formula was used to calculate the percentage of radical scavenging:Radical scavenging % = [(A0 − Ac)/A0] × 100 where A0 is the absorbance of the control sample, containing the reagents except the test substance, and Ac is the absorbance of the solution of the various complexes and of the control measured after 30 min of incubation at 37 °C. Any determination is performed in triplicate.
In order to determine the DPPH radical scavenging activity of different scorpionate complexes, the compounds or standards in methanol were diluted in series in the 96 well plate with a flat bottom. The solvent used is usually the same used to dissolve the samples. In various wells containing the compounds and standards, 200 μL of DPPH in methanol solution (100 μM) were added to reach a final volume of 250 μL in all wells. After incubation at 37 °C for 20 min, the absorbance of samples was determined at 490 nm (Multiskan JX, Thermo Labsystems Oy, Vantaa, Finland). Trolox was used as a control and was loaded into the plate with the same method and dilution of the samples.
(The DPPH test is a chemical assay of radical scavenging.)

Data set [7] can be described thus: Overall evaluation of scavenging (antioxidant) activity, all radical assays. As to conditions: conclusions, all radical assays together. In kind it is biochemical. As for the experimental part:
as §1

Data set [8] in a line: Solubility of the isolated complexes. Type of data set: physicochemical. The note with it: for Solubility in chlorinated solvents, alcohols, acetonitrile, dimethylsulfoxide and dimethylformamide: organic solvents as listed.
Data set [9] is described as follows: Air and moisture stability of the isolated powders. In kind it is physicochemical. As to conditions: pure powders.
The conditions of data set [10]: read-out: SOD activity IC50, cited from earlier work.

Where two headings read alike, the source gives them in different places.

As for `Cc1c(C)c2c(c(C)c1O)CCC(C)(C(=O)O)O2` (stereo not shown) [Trolox, reference compound], the IC50 was 0.00401 ± 0.0007 mM in [1]; over 5 mM in data set [2]; over 5 mM in data set [3]; over 5 mM in [4]; over 5 mM in data set [5]; 0.0199 ± 0.0015 mM in data set [6].

For `CC(C)(C)c1cc[nH]n1.CC(C)(C)c1cc[nH]n1.CC(C)(C)c1cc[nH]n1.[Cl][Cu][Cl]` [Complex 3, [Cu(Hpz^t^Bu)3Cl2]], the IC50 in data set [1] was 0.0972 ± 0.0038 mM; in data set [2] it was over 5 mM; in [3] it was over 5 mM; in [4] it was 0.233 ± 0.004 mM; in data set [5], over 5 mM; in data set [6], 0.0766 ± 0.0025 mM. Besides, the “SOD-mimic activity, times less than native bovine Cu-Zn-SOD” value in [4] (ratio of superoxide IC50 to native bovine Cu-Zn-SOD (IC50 = 0.48 μM)) is listed as 500 times. In addition, the “Antioxidant (scavenging) activity, overall verdict” value (“Antioxidant (scavenging) activity” below) in [7] is “moderate antioxidant activity”. In addition, the “Solubility in chlorinated solvents, alcohols, acetonitrile, dimethylsulfoxide and dimethylformamide” value (shortened to “Solubility in chlorinated solvents”) in data set [8] is on record as “soluble”. For the same molecule, the Solubility in water result in data set [8] is “insoluble”.

As to [Zn(Tp^t^Bu)Cl] [Complex 6], the IC50 in [1] is 0.0579 ± 0.0034 mM; in data set [2], over 5 mM; in data set [3], over 5 mM; in [4], over 5 mM; in data set [5], over 5 mM; in data set [6], over 5 mM. Further, the “Solubility in chlorinated solvents” value in data set [8] is reported as “soluble”. In addition, in [8], the Solubility in water result was “insoluble”.

For `ClCCl.ClCCl.ClCCl.ClCCl.[Zn+2].c1ccc2c(c1)CCc1cn([BH-](n3cc4c(n3)-c3ccccc3CC4)n3cc4c(n3)-c3ccccc3CC4)nc1-2.c1ccc2c(c1)CCc1cn([BH-](n3cc4c(n3)-c3ccccc3CC4)n3cc4c(n3)-c3ccccc3CC4)nc1-2` [Complex 5, [Zn(Tp^a)2]⋅4CH2Cl2], the “Stability to air and moisture” value in data set [9] was “air and moisture stable”. Moreover, the “Antioxidant (scavenging) activity” value in data set [7] is given as “moderate antioxidant activity”. In data set [8], the “Solubility in most organic solvents” value is “good solubility”; the “Solubility in chlorinated solvents” value is recorded as “soluble”; the Solubility in water entry was “insoluble”.

As to `Cc1ccc2c(cnn2[BH-](n2ncc3cc(C)ccc32)n2ncc3cc(C)ccc32)c1.Cc1ccc2c(cnn2[BH-](n2ncc3cc(C)ccc32)n2ncc3cc(C)ccc32)c1.ClCCl.[Zn+2]` [Complex 4, [Zn(Tp^4Bo,5Me)2]⋅CH2Cl2], the “Stability to air and moisture” value in data set [9] is “air and moisture stable”. In addition, in data set [8], the “Solubility in most organic solvents” value was “good solubility”; the “Solubility in chlorinated solvents” value was “soluble”; the Solubility in water entry was “insoluble”.

Regarding `CC(C)(C)c1cc[nH]n1.CC(C)(C)c1ccn([BH2-]n2ccc(C(C)(C)C)n2)n1.[Cl][Cd+]` [Complex 9, [Cd(Bp^t^Bu)(Hpz^t^Bu)Cl]], the IC50 was 0.151 ± 0.0042 mM in data set [1]; over 5 mM in data set [2]; over 5 mM in data set [3]; over 5 mM in data set [4]; over 5 mM in data set [5]; over 5 mM in data set [6]. Besides, the “Antioxidant (scavenging) activity” value in data set [7] is “moderate antioxidant activity”. In addition, the “Solubility in chlorinated solvents” value in data set [8] is given as “soluble”. For the same molecule, in data set [8], the Solubility in water result is given as “insoluble”.

On to `O=C(O)c1ccc(P(c2ccccc2)c2ccccc2)cc1.O=C(O)c1ccc(P(c2ccccc2)c2ccccc2)cc1.[Cu+].c1cnn([B-](n2cccn2)(n2cccn2)n2cccn2)c1` [[Cu(PPh2(4-C6H4COOH))2(pzTp)]], for which, in data set [10] (reported scorpionate complex ref 21), the IC50 was 0.0046 mM.

Regarding `Cc1ccc2c(cnn2[BH-](n2ncc3cc(C)ccc32)n2ncc3cc(C)ccc32)c1.Cc1ccc2c(cnn2[BH-](n2ncc3cc(C)ccc32)n2ncc3cc(C)ccc32)c1.[Cd+2]` [Complex 7, [Cd(Tp^4Bo,5Me)2]], the IC50 in data set [1], in data set [2], in data set [3], in data set [4], in data set [5] and in [6] was over 5 mM in each case. The “Stability to air and moisture” value in [9] is “air and moisture stable”. For the same molecule, the “Solubility in most organic solvents” value in data set [8] was “good solubility”. Also, in [8], the “Solubility in chlorinated solvents” value is reported as “soluble”. Further, the Solubility in water entry in data set [8] is “insoluble”.

`Brc1cnn([BH-](n2cc(Br)cn2)n2cc(Br)cn2)c1.O=C(O)c1ccc(P(c2ccccc2)c2ccccc2)cc1.[Cu+]` [[Cu(PPh2(4-C6H4COOH))(Tp^4Br)]]: the IC50 in data set [10] (reported scorpionate complex ref 20) is 0.0062 mM.

Take “native bovine Cu-Zn-SOD: native bovine copper-zinc superoxide dismutase enzyme”: the IC50 in [10] (native enzyme, literature value ref 47) is 0.00048 mM.
